According to patent publication US20050112128A1, “Inhibition of protein kinase c-mu (PKD) as a treatment for cardiac hypertrophy and heart failure” (Myogen, Inc. and Board of Regents, The University of Texas …, priority 2003, published 2005):
Entries after “also recorded” stand apart in the source; their conditions may differ.

How the values were obtained:
[1] = test system: association of HDAC5 and 14-3-3; assay: Immunoprecipitation/immunoblotting of HDAC5 and 14-3-3 in NRVMs; format: cell-based, rat; conditions: inhibitor 10 μM, 1 hr before PE (20 μM) or ET-1 (50 nM) for 1 hr
[2] = molecular target: T1, PKD (Homo sapiens, UniProt Q15139); conditions: literature (Van Lint 2002; Gschwendt 1996; Haworth); cited from earlier work
T1 sequence (Q15139 1-912): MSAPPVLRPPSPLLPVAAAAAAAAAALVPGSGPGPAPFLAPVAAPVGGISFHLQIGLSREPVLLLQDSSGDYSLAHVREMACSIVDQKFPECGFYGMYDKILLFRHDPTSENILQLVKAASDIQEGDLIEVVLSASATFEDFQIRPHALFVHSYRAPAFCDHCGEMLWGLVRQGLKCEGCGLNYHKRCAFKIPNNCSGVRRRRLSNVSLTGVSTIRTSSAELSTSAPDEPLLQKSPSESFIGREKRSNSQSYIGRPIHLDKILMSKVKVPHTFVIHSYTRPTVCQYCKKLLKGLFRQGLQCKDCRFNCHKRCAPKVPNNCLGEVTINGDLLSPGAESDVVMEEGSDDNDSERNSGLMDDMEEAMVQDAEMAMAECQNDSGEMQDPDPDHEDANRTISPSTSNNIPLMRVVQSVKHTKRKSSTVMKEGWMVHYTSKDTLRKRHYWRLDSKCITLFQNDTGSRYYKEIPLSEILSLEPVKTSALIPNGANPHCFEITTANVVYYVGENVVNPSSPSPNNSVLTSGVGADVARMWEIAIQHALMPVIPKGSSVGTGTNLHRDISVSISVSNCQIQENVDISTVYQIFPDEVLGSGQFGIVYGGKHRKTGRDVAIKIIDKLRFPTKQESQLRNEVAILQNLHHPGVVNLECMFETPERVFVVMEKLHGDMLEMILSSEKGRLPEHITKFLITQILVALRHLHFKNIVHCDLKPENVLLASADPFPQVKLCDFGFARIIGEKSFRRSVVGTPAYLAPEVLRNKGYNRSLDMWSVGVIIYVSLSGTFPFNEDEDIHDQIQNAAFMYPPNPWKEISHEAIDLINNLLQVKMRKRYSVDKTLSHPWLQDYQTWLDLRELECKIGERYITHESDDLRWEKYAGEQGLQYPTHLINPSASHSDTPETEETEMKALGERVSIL

[3] = test system: nuclear export of GFP-HDAC5 in NRVMs; assay: Quantitative HDAC5 nuclear export assay in NRVMs (Cellomics High Content Imaging System); format: cell-based, rat; conditions: 2 hrs
[4] = molecular target: T2, HDAC5-bound PKD (Rattus norvegicus, UniProt Q9WTQ1); format: biochemical; conditions: 10 μM inhibitor in kinase reaction mixture (post)
T2 construct: Association of endogenous PKD with HDAC5 in cardiomyocytes; endogenous in cells; host or cells: neonatal rat ventricular myocytes; the kinase co-precipitated with adenoviral FLAG-HDAC5
T2 sequence (Q9WTQ1 1-918): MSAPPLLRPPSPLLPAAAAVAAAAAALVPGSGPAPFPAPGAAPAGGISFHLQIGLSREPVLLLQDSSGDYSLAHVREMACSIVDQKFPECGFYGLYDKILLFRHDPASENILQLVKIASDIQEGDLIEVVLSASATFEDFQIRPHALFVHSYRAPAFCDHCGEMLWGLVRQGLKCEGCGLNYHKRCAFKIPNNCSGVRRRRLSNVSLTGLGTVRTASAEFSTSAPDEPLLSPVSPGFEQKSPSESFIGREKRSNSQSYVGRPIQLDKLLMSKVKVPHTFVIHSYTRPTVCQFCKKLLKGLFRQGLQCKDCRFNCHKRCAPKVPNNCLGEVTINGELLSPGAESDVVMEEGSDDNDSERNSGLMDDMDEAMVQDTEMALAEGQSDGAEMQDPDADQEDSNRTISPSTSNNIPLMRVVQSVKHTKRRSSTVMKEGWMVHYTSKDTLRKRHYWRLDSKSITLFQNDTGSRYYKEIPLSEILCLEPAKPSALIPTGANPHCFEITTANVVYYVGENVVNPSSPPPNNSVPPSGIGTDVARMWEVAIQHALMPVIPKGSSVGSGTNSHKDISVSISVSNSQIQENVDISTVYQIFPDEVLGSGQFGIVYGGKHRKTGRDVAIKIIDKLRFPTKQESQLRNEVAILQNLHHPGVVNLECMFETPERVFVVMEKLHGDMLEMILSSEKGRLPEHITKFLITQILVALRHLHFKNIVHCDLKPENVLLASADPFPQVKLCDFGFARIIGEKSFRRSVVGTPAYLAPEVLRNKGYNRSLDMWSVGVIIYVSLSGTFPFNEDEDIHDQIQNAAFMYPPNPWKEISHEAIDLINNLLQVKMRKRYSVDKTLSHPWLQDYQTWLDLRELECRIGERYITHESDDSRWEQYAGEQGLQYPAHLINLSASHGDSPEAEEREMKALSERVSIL

[5] = test system: endogenous PKD; assay: Co-immunoprecipitation of endogenous PKD with HDAC5 in NRVMs (total PKD and p-916 immunoblot); format: cell-based, rat; conditions: PE 20 μM 1 hr, absence or presence of Bis I 10 μM
[6] = test system: NRVMs; assay: ANF immunostaining of cardiomyocytes (hypertrophy marker); format: cell-based, rat; conditions: PE 20 μM or PMA 100 nM, 24 hrs
Procedure: FIGS. 3A-C—Inhibition of PKC-mediated cardiac hypertrophy by signalresistant HDAC5. NRVMs were cultured on 6-well dishes and infected with adenoviruses (MOI=10) encoding a LacZ control (Ad-LacZ) or FLAG-tagged HDAC5 harboring alanines in place of serines 259 and 498 (Ad-HDAC5 S/A), which are required for 14-3-3-mediated nuclear export. Cells were treated with PE (20 μM) or PMA (100 nM) for 24 hrs prior to analysis. FIG. 3A. Cells were fixed and sarcomeres visualized by indirect immunofluorescence with primary antibody specific for α-actinin and fluorescein-conjugated secondary antibody. FIG. 3B. ANF protein was detected by indirect immunofluorescence with anti-ANF primary antibody. FIG. 3C. Total RNA was harvested from cells and subjected to dot blot analysis with radiolabeled oligonucleotides specific for the indicated transcripts. RNA levels were quantified using a phosphorimager and are depicted as -fold change relative to amounts in unstimulated cells infected with Ad-LacZ. Values were normalized to GAPDH controls.
Cell culture and transfection assays. COS cells were maintained in DMEM with FBS (10%), L-glutamine (2 mM), and penicillin-streptomycin. Transfection of COS cells was performed with Fugene 6 (Roche Molecular Biochemicals) according to manufacturer's instructions. […]

[7] = Takahashi et al., 1996; cited from earlier work
[8] = test system: ras transformed cells; conditions: Taunton et al., 1996; cited from earlier work

Cn1c2ccccc2c2c3c(c4c5ccccc5n(CCC#N)c4c21)CNC3=O [Gö6976]
block of association of HDAC5 and 14-3-3 [1]: blocked association of HDAC5 and 14-3-3 in response to both PE and ET-1 | sensitivity of PKD to the inhibitor [2]: sensitive to Gö6976 | block of ET-1-induced nuclear export of HDAC5 ([3]; NRVMs, ET-1 50 nM, inhibitor pre-treatment 30 min): efficiently blocked nuclear export of HDAC5 | block of FBS-induced nuclear export of HDAC5 ([3]; NRVMs, FBS 10%, inhibitor pre-treatment 30 min): efficiently blocked nuclear export of HDAC5 | block of PE-induced nuclear export of HDAC5 ([3]; NRVMs, PE 20 μM, inhibitor pre-treatment 30 min, KN93, wortmannin, staurosporine 1 mM, U1026, HA1077, Y-27632, DAG Kinase inhibitor II, SB216763, Bis I 10 mM, rapamycin 30 ng/ml, Gö6983 10 μM): efficiently blocked nuclear export of HDAC5 | block of HDAC5 phosphorylation, inhibitor added directly to kinase reaction [4]: blocked phosphorylation of HDAC5; also recorded: blocked phosphoryl transfer to HDAC5

CNC[C@H](O)c1cccc(O)c1 [PE, phenylephrine]
activation of HDAC5-associated PKD [5]: became activated in a PKC-dependent manner | agonist-triggered nuclear export of HDAC5 in cardiomyocytes ([3]; NRVMs infected with Ad-GFP-HDAC5, PE 0.1 to 20 μM, ET-1 50 nM, FBS 10%): triggered nuclear export of HDAC5 in a concentration-dependent manner; also recorded: triggered dose-dependent nuclear export of HDAC5 | ANF protein expression [6]: prominent perinuclear ANF protein expression

CC(/C=C/C(=O)NO)=C\[C@@H](C)C(=O)c1ccc(N(C)C)cc1 [Trichostatin A]
immunosuppression in a mouse model [7]: induces immunsuppression in a mouse model | effect on acetylation and morphology of ras transformed cells [8]: induce hyperacetylation and cause reversion of ras transformed cells to normal morphology
